Experiment: Particle size of the isolated crystalline product observed under a microscope
[1] = two-stage mixing with two HFC 134A streams (FIG. 6 nozzle), no surfactant
[2] = two-stage mixing, co-precipitation of salicylic acid (20% w/v) and adipic acid (3% w/v) from acetone

Question: For `O=[N+]([O-])[O-].[Ag+]` [silver nitrate], which particle size range [1] is on record?
Answer: ≤ 3 microns

Question: For `O=C(O)CCCCC(=O)O` [adipic acid, hexanedioic acid], which particle size range (comparative single-stage mixing with one HFC 134A stream, no surfactant) is on record?
Answer: 20-100 microns

Question: What about the particle size range (single-stage mixing, HFC 134A, 1% w/w Antorox B12 DF surfactant) of the same compound?
Answer: 20-200 microns

Question: What about the particle size (single-stage mixing, HFC 134A, 1% w/w Brij 30 added to 10% w/v solution in ethanol) of the same compound?
Answer: < 10 micron

Question: And the particle size range [1]?
Answer: 10-20 microns

Question: What about the particle size [2] of the same compound?
Answer: around 10 microns

Question: For `CC(=O)Nc1ccc(O)cc1` [paracetamol, N-acetyl-p-aminophenol, reference compound], which particle size (two-stage mixing, HFC 134A, 8% w/v in methanol with 1% w/w Brij 30) is on record?
Answer: < 3 micron

Question: Which particle size [2] does the source give for `O=C(O)c1ccccc1O` [salicylic acid] here?
Answer: below 3 microns

Reference: patent US7740775B2, “Method for the production of particles” (priority 2001, dated 2010)
